Laboratory results taken from the supplement of paper PMC10307832.

What was measured:
Test in all cases: relative viability (nuclei count vs DMSO), 5 days (fraction); higher = more cells survive
[1] = compound: C1COCCN1C2=NC(=NC3=C2OC4=C3C=CC=N4)C5=CC(=CC=C5)NC(=O)C6=CN=C(C=C6)N + CS(=O)(=O)N1CCN(Cc2cc3nc(-c4cccc5[nH]ncc45)nc(N4CCOCC4)c3s2)CC1 [Pictilisib] (partner 1 µM)
In short: (§1)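 Lung cancer cell lines in 1536-well plates got either a single drug or a fixed anchor-drug dose together with five library-drug doses (not always all listed) in √10 steps, by pin tool, on the day after seeding. Nuclei were counted after 5 days, and relative viability is the treated-to-vehicle ratio of nuclei counts. Values are medians of duplicate plates.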

Entinostat + Palbociclib = compound: Nc1ccccc1NC(=O)c1ccc(CNC(=O)OCc2cccnc2)cc1 [Entinostat] + CC(=O)c1c(C)c2cnc(Nc3ccc(N4CCNCC4)cn3)nc2n(C2CCCC2)c1=O [Palbociclib] (partner 0.5 µM)
In short: as §1

Entinostat + AZD7762 = compound: Nc1ccccc1NC(=O)c1ccc(CNC(=O)OCc2cccnc2)cc1 [Entinostat] + NC(=O)Nc1cc(-c2cccc(F)c2)sc1C(=O)N[C@H]1CCCNC1 [AZD7762] (partner 0.2 µM)
In short: as §1

Entinostat + Trametinib = compound: Nc1ccccc1NC(=O)c1ccc(CNC(=O)OCc2cccnc2)cc1 [Entinostat] + CC(=O)Nc1cccc(-n2c(=O)n(C3CC3)c(=O)c3c(Nc4ccc(I)cc4F)n(C)c(=O)c(C)c32)c1 [Trametinib] (partner 0.02 µM)
In short: as §1

Row | Cell Line | relative viability ([1]; first compound 0.02 µM) | relative viability ([1]; first compound 0.06325 µM) | relative viability ([1]; first compound 0.2 µM) | relative viability ([1]; first compound 0.6325 µM) | relative viability ([1]; first compound 2 µM) | relative viability (Entinostat + Palbociclib; first compound 0.02 µM) | relative viability (Entinostat + Palbociclib; first compound 0.06325 µM) | relative viability (Entinostat + Palbociclib; first compound 0.2 µM) | relative viability (Entinostat + Palbociclib; first compound 0.6325 µM) | relative viability (Entinostat + Palbociclib; first compound 2 µM) | relative viability (Entinostat + AZD7762; first compound 0.02 µM) | relative viability (Entinostat + AZD7762; first compound 0.06325 µM) | relative viability (Entinostat + AZD7762; first compound 0.2 µM) | relative viability (Entinostat + AZD7762; first compound 0.6325 µM) | relative viability (Entinostat + AZD7762; first compound 2 µM) | relative viability (Entinostat + Trametinib; first compound 0.02 µM) | relative viability (Entinostat + Trametinib; first compound 0.06325 µM) | relative viability (Entinostat + Trametinib; first compound 0.2 µM) | relative viability (Entinostat + Trametinib; first compound 0.6325 µM) | relative viability (Entinostat + Trametinib; first compound 2 µM)
1 | HCC-366 | 0.0246 | 0.144 | 0.107 | 0.107 | 0.204 | 0.344 | 0.348 | 0.133 | 0.111 | 0.0439 | 0.262 | 0.29 | 0.272 | 0.107 | 0.121 | 0.42 | 0.306 | 0.253 | 0.218 | 0.0673
2 | HCC-827 | 0.99 | 1.1 | 1.12 | 0.986 | 0.935 | 0.407 | 0.436 | 0.336 | 0.311 | 0.184 | 0.247 | 0.244 | 0.159 | 0.203 | 0.159 | 0.516 | 0.474 | 0.406 | 0.338 | 0.203
3 | HOP-62 | 0.792 | 0.82 | 0.698 | 0.876 | 0.499 | 0.409 | 0.44 | 0.45 | 0.195 | 0.162 | 0.535 | 0.711 | 0.545 | 0.222 | 0.15 | 0.412 | 0.435 | 0.392 | 0.351 | 0.18
4 | IA-LM |  | 0.301 | 0.319 | 0.353 | 0.182 |  |  |  |  |  |  |  |  |  |  |  |  |  |  | 
5 | LC-2-ad | 0.441 | 0.51 | 0.526 | 0.443 | 0.487 | 0.473 | 0.412 | 0.417 | 0.421 | 0.323 | 0.884 | 0.853 | 0.759 | 0.497 | 0.257 | 0.894 | 0.883 | 0.83 | 0.698 | 0.479
6 | NCI-H520 | 0.302 | 0.327 | 0.274 | 0.293 | 0.179 | 0.195 | 0.237 | 0.32 | 0.355 | 0.236 |  |  |  |  |  | 0.698 | 0.906 | 0.604 | 0.698 | 0.355
7 | NCI-H522 |  |  |  |  |  | 1.01 | 1.15 | 1.13 | 1.01 | 0.97 | 0.779 | 0.846 | 0.85 | 1.07 | 0.796 | 0.812 | 0.966 | 0.799 | 0.844 | 0.841
8 | NCI-H596 | 0.356 | 0.386 | 0.374 | 0.315 | 0.407 |  |  |  |  |  | 1.19 | 1.11 | 1.14 | 0.817 | 0.829 | 0.748 | 0.638 | 0.807 | 0.649 | 0.459
9 | NCI-H661 | 0.441 | 0.395 | 0.392 | 0.375 | 0.163 | 0.411 | 0.464 | 0.429 | 0.391 | 0.355 |  |  |  |  |  | 0.62 | 0.605 | 0.715 | 0.536 | 0.363
10 | NCI-H1299 | 0.866 | 0.943 | 0.808 | 0.791 | 0.442 |  |  |  |  |  |  |  |  |  |  |  |  |  |  | 
11 | NCI-H1563 | 0.632 | 0.618 | 0.622 | 0.626 | 0.604 |  |  |  |  |  |  |  |  |  |  |  |  |  |  | 
